Common to all, as to assay type: functional, cell-based
For one experiment, the system named is HT-29. Put plainly: The compound was evaluated for the cytotoxicity against human HT-29 (colon) tumor cell lines.
Another experiment concerns SK-OV-3. Put plainly: The compound was evaluated for the cytotoxicity against human SKOV-3 (ovarian) tumor cell lines.
Another experiment concerns A2780. The experiment can be described thus: The compound was evaluated for the cytotoxicity against human A2780 (ovarian) tumor cell lines.
For a further experiment, the system named is A2780cisR. Put plainly: The compound was evaluated for the cytotoxicity against human A2780cisR (ovarian) tumor cell lines.
A further experiment concerns CH1. The experiment can be described thus: The compound was evaluated for the cytotoxicity against human CH1 (ovarian) tumor cell lines.

Consider `CCOC(=O)CNC(=O)[C@@H](OC(=O)c1cc(OC)cc2c(C)cccc12)[C@]1(C)CO1`, for which the half-maximal inhibitory concentration (IC50) in the experiment with HT-29 (Homo sapiens, HT-29) worked out at 2250 nM; in the experiment on SK-OV-3, 7300 nM; with A2780 it was 340 nM; with A2780cisR (Homo sapiens, A2780cisR), 830 nM; in the experiment with CH1, 260 nM.
As for `CCOc1cc(C(=O)O[C@H](C(N)=O)[C@]2(C)CO2)c2cccc(C)c2c1`, the half-maximal inhibitory concentration (IC50) came out at 4300 nM with HT-29 (Homo sapiens, HT-29); 12000 nM in the experiment with SK-OV-3; 1800 nM in the experiment on A2780; 3500 nM with A2780cisR (Homo sapiens, A2780cisR); 1400 nM with CH1.
As to `COc1cc(C(=O)O[C@H](C(N)=O)[C@@]2(C)CO2)c2cccc(C)c2c1`, the IC50 with HT-29 (Homo sapiens, HT-29) was determined as 610 nM; in the experiment on SK-OV-3, 2300 nM; in the experiment on A2780 it was 58 nM; in the experiment on A2780cisR (Homo sapiens, A2780cisR) it was 155 nM; in the experiment on CH1, 62 nM.
In the case of `C[C@@]1([C@H](OC(=O)c2cccc3ccccc23)C(N)=O)CO1`, the concentration for half-maximal inhibition (IC50) came out at 2150 nM with HT-29 (Homo sapiens, HT-29); 5100 nM in the experiment with SK-OV-3; 440 nM in the experiment with A2780; 1100 nM in the experiment with A2780cisR (Homo sapiens, A2780cisR); 550 nM in the experiment on CH1.
The corresponding values for `C[C@@]1([C@H](OC(=O)c2ccc3ccccc3c2)C(N)=O)CO1` are 2600 nM, 13000 nM, 390 nM, 1350 nM and 170 nM.
The corresponding values for `C[C@@]1([C@H](OC(=O)c2ccccc2)C(N)=O)CO1` are more than 25000 nM, more than 25000 nM, 20500 nM, more than 25000 nM and more than 25000 nM.
The corresponding values for `C[C@@]1([C@H](OC(=O)c2cnc3ccccc3n2)C(N)=O)CO1` are more than 25000 nM, more than 25000 nM, more than 25000 nM, more than 25000 nM and more than 25000 nM.
Regarding `COc1cc(C(=O)O[C@H](C(N)=O)[C@]2(C)CO2)c2cccc(C)c2c1`, the half-maximal inhibitory concentration (IC50) with HT-29 (Homo sapiens, HT-29) was 330 nM; in the experiment with SK-OV-3 it was 1250 nM; with A2780 it was less than 50 nM; with A2780cisR (Homo sapiens, A2780cisR) it was 76 nM; in the experiment with CH1, less than 50 nM.
With `CC1([C@H](OC(=O)c2cccc3ccccc23)C(N)=O)CC1`, the half-maximal inhibitory concentration (IC50) in the experiment with HT-29 (Homo sapiens, HT-29) was more than 25000 nM; in the experiment on SK-OV-3, more than 25000 nM; in the experiment with A2780 it was more than 25000 nM; in the experiment with A2780cisR (Homo sapiens, A2780cisR), more than 25000 nM; in the experiment on CH1 it was more than 25000 nM.
For the compound `CCOC(=O)[C@@H](NC(=O)[C@@H](OC(=O)c1ccc(C)c2cc(OC)ccc12)[C@]1(C)CO1)C(C)C`, the IC50 was determined as 2250 nM in the experiment on HT-29 (Homo sapiens, HT-29); 2950 nM in the experiment with SK-OV-3; 350 nM in the experiment with A2780; 560 nM in the experiment on A2780cisR (Homo sapiens, A2780cisR); 315 nM in the experiment on CH1.
On to `CO[C@@]12[C@H](COC(N)=O)C3=C(C(=O)C(C)=C(N)C3=O)N1C[C@@H]1N[C@@H]12` [MITOMYCIN], for which the IC50 in the experiment on HT-29 (Homo sapiens, HT-29) turned out to be 40 nM; in the experiment with SK-OV-3, 200 nM; with A2780, 50 nM; in the experiment on A2780cisR (Homo sapiens, A2780cisR) it was 60 nM; with CH1, 40 nM.
In the case of CISPLATIN, the half-maximal inhibitory concentration (IC50) is 1700 nM with HT-29 (ht-29) and 3000 nM with A2780cisR (a2780cisr).

In general, IC50 refers to the concentration needed to halve the response being measured. A low value points to greater potency in that assay.

These data come from ChEMBL document CHEMBL1133374, “Chemical synthesis and cytotoxicity of some azinomycin analogues devoid of the 1-azabicyclo[3.1.0]hexane subunit” (Bioorg Med Chem Lett, 2000).
